Here are results for five compounds from patent US20090238808A1, “Process for the identification of novel enzyme interacting compounds” (priority 2005, published 2009).

The structures appear in SMILES notation.

What all share (assay): Kinobeads elution with test compound, mouse brain lysate, MS
Assay type in all cases: binding
Holding throughout (conditions): kinase released from kinobeads by specific elution

The target of one experiment is T1, PAK5 (Mus musculus, UniProt Q8C015).
T1 construct: from tissue; host or cells: mouse brain
In outline: (§1)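 Competitive elution: mouse brain lysate bound to kinobeads, gentle wash, test compound 1.0 mM in elution buffer, 30 min, 4° C; solvent control 2% DMSO/DMF. Eluates → DTT reduction, iodoacetamide alkylation, SDS gel → MS identification.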

The target in a further experiment is T2, PKCa (Mus musculus, UniProt P20444).
T2 construct: from tissue; host or cells: mouse brain
In outline: as §1

Another experiment has as its target T3, PKCg (Mus musculus, UniProt P63318).
T3 construct: from tissue; host or cells: mouse brain
Summed up:
as §1

The next experiment has as its target T4, TBK1 (Mus musculus, UniProt Q9WUN2).
T4 construct: from tissue; host or cells: mouse brain
In outline:
as §1

The target of another experiment is CDKL5 (Mus musculus, UniProt Q3UTQ8). The source says:
This example illustrates competitive elution of proteins bound to kinobeads with non-modified test compounds (see particularly the fourth aspect of the invention). […] The kinobeads were contacted with mouse brain lysate under conditions that allow the binding of the proteins in the lysate to the ligands. The binding conditions were close to physiological by choosing suitable buffer conditions preserving the function of the proteins. After removing non-captured proteins through a gentle washing procedure the bound proteins were contacted with a test compound for protein elution. […] 1. […] Transfer 20 μl the 1:3 slurry into MoBiTech columns (equivalent to 5 μl of beads). 3. Place the column into an Eppendorf tube and centrifuge it for 15 seconds at 800 rpm at 4° C. Close columns with lower lid. 4. Add 10 μl elution buffer containing 1.0 mM of the test compound (concentration ranges of 0.1 to 1.0 mM are suitable). […] Close column with upper lid. 5. Incubate for 30 minutes at 4° C. in an Eppendorf incubator at 700 rpm. 6. Open column (first top, then bottom), put column back into siliconized tube ([…] Microcentrifuge Tubes, cat. no 11270, Sorenson BioScience, Inc.). To harvest the eluate centrifuge 2 minutes at 2.000 rpm in table top centrifuge at room temperature. The typical volume of the eluate is approximately 15 μl. 7. […]

The next experiment concerns the target AMPKa1 (Mus musculus, UniProt Q5EG47). In outline: as §1
Another experiment has as its system LIMK1ps. Summed up: as §1
Another experiment deals with T5, NEK9 (Mus musculus, UniProt Q8K1R7).
T5 construct: from tissue; host or cells: mouse brain
Summed up:
as §1

The test system of another experiment is BRAFps. Summed up:
as §1

The target of another experiment is ALK2 (Mus musculus, UniProt P37172). Summed up: as §1
A further experiment concerns the target T6, LYN (Mus musculus, UniProt P25911).
T6 construct: from tissue; host or cells: mouse brain
Summed up:
as §1

The target of the next experiment is T7, QSK (Mus musculus, UniProt Q6P4S6).
T7 construct: from tissue; host or cells: mouse brain
Summed up: as §1

T6 sequence (P25911 whole entry): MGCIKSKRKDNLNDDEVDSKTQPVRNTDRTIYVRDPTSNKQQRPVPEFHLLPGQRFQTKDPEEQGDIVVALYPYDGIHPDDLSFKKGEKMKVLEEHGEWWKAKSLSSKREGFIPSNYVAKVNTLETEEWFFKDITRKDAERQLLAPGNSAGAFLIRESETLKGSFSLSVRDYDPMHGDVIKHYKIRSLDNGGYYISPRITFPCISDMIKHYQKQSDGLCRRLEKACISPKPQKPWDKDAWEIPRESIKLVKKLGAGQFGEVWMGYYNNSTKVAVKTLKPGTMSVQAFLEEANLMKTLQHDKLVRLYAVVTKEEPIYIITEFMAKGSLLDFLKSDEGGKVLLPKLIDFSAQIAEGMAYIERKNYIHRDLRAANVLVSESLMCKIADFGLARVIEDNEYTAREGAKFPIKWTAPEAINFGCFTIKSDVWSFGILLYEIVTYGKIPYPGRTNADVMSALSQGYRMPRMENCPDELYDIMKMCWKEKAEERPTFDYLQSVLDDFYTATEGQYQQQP
T1 sequence (Q8C015 whole entry): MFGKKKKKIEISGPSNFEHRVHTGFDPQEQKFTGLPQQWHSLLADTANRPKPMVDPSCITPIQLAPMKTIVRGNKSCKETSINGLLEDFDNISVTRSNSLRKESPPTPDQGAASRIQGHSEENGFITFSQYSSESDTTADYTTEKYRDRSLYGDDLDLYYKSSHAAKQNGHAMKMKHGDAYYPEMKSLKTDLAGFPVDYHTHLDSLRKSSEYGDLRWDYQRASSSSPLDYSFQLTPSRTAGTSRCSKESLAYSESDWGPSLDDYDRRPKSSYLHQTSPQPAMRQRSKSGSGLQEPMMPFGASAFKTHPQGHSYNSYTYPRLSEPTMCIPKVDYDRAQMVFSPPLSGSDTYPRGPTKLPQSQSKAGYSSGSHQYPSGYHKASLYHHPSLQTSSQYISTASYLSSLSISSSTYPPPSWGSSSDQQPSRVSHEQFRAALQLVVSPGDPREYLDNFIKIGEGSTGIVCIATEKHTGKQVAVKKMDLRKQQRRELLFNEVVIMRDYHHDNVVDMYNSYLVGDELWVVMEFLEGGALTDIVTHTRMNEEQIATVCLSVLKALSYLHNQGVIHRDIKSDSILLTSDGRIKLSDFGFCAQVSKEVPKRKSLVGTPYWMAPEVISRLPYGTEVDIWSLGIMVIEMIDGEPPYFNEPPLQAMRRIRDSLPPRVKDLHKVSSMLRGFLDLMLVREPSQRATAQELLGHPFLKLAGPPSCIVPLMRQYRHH
Sequence of ALK2 (P37172 21-509): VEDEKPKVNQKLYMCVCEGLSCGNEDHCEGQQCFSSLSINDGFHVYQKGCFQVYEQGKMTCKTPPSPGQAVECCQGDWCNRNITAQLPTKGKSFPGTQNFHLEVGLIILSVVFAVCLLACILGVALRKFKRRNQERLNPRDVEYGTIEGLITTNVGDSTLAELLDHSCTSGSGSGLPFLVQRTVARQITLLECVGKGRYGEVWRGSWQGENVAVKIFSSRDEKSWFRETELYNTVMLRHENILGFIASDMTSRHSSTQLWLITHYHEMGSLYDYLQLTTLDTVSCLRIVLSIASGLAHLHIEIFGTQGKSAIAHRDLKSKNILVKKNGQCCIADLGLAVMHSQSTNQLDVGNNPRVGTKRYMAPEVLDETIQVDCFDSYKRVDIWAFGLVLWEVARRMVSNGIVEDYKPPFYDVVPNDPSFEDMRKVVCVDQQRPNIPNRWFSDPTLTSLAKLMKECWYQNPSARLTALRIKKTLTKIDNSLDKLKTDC
T5 sequence (Q8K1R7 whole entry): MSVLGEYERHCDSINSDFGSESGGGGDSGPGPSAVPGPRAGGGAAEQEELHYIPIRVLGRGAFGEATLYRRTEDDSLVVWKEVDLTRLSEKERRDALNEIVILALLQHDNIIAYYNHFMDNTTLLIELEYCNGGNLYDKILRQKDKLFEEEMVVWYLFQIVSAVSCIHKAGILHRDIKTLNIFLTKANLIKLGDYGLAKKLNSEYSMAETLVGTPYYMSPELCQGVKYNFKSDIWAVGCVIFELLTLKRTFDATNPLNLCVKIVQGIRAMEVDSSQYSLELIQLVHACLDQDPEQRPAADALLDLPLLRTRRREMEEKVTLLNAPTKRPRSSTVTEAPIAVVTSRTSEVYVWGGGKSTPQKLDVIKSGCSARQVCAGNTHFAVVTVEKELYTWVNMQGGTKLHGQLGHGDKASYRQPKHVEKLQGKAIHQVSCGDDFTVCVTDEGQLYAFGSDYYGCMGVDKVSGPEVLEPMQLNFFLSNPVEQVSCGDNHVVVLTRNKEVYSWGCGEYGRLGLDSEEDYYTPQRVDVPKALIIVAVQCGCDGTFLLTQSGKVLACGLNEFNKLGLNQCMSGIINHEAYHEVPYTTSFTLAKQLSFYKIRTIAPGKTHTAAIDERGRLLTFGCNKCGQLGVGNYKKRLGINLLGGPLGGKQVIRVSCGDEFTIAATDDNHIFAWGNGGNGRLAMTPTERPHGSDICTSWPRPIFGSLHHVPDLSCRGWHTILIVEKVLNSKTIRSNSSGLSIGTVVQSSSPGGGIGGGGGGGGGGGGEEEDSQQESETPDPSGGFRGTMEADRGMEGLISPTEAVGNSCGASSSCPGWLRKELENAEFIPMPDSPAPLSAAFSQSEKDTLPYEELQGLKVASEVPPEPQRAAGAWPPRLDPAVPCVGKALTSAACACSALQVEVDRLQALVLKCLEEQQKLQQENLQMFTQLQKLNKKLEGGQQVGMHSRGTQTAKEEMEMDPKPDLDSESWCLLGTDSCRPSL
Sequence of CDKL5 (Q3UTQ8 whole entry): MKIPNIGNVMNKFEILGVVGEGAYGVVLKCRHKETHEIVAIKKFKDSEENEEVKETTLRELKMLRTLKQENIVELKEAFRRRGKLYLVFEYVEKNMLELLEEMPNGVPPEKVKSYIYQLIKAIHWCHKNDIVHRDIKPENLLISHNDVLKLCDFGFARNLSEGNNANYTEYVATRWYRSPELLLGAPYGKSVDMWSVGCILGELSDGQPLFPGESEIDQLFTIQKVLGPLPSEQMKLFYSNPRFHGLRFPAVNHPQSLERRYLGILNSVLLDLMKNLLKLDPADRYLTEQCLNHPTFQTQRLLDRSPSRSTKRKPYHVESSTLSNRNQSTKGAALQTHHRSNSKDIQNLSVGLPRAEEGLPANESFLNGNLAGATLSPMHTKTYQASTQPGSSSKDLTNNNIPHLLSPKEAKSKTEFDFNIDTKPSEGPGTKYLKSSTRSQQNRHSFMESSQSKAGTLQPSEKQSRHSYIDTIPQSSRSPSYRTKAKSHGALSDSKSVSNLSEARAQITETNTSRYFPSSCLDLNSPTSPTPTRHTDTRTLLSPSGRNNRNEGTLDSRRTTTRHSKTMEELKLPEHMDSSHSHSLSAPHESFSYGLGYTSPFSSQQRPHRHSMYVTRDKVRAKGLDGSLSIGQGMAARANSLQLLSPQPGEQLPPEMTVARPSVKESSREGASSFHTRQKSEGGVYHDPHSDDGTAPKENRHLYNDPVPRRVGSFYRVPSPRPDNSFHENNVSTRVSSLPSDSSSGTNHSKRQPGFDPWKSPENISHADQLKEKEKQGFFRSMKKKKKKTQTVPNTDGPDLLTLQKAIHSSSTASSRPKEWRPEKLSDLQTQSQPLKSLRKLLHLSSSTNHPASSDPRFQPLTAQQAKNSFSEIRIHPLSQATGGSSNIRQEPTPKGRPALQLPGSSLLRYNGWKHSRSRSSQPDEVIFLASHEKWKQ

Regarding `CNC1CC2OC(C)(C1OC)n1c3ccccc3c3c4c(c5c6ccccc6n2c5c31)C(=O)NC4` (stereo not drawn) [CZC9280], at PAK5, the “mass spectrometry score, PAK5” value is reported as 64 and the “number of identified peptides, PAK5” value is on record as 1. Besides, at PKCa, the “mass spectrometry score, PKCa” value worked out at 64 and the “number of identified peptides, PKCa” value turned out to be 1. For the same compound, on PKCg, the “mass spectrometry score, PKCg” value is listed as 53 and the “number of identified peptides, PKCg” value is 1. Moreover, at TBK1, the “mass spectrometry score, TBK1” value amounted to 48 and the “number of identified peptides, TBK1” value is recorded as 1.
As for `CC(C)[C@H](CO)Nc1nc(Nc2ccc(C(=O)O)c(Cl)c2)c2ncn(C(C)C)c2n1` [Purvalanol B, reference compound], at CDKL5, the “mass spectrometry score, CDKL5” value was determined as 48 and the “number of identified peptides, CDKL5” value came to 1.
Regarding `NCc1ccc(Nc2ncc(F)c(Nc3ccccc3)n2)cc1` [CZC00008004], on AMPKa1, the “mass spectrometry score, AMPKa1” value is on record as 64 and the “number of identified peptides, AMPKa1” value came to 2. In the experiment on LIMK1ps, the “mass spectrometry score, LIMK1ps” value was determined as 186 and the “number of identified peptides, LIMK1ps” value is listed as 4. Also, at NEK9, the “mass spectrometry score, NEK9” value was 61 and the “number of identified peptides, NEK9” value is 2.
With `Cn1c(=O)c(-c2c(Cl)cccc2Cl)cc2cnc(Nc3ccc(CN)cc3)cc21` [CZC7324], in the experiment on BRAFps, the “mass spectrometry score, BRAFps” value is 70 and the “number of identified peptides, BRAFps” value amounted to 4.
Consider `CCCCCCCCCCCCOS(=O)(=O)[O-].[Na+]` [SDS], for which, on ALK2, the “mass spectrometry score, ALK2” value is recorded as 65 and the “number of identified peptides, ALK2” value is 2. On LYN, the “mass spectrometry score, LYN” value is listed as 134 and the “number of identified peptides, LYN” value stood at 6. For the same compound, on QSK, the “mass spectrometry score, QSK” value is 153 and the “number of identified peptides, QSK” value turned out to be 7.
